Test results from patent US11066363B2, “Substituted 6,11-dihydro-5H-benzo[B]carbazoles as inhibitors of ALK and SRPK” (Dana-Farber Cancer Institute, Inc., priority 2015, dated 2021).

Experiments:
[1] = tested on: EML4-ALK wt transformed Ba/F3 cells; assay: Ba/F3 single point inhibition assay (MTS); type: cell-based; conditions: single dose 1 μM, 72 hours
[2] = tested on: EML4-ALK^G1202R transformed Ba/F3 cells; assay: Ba/F3 single point inhibition assay (MTS); type: cell-based; conditions: single dose 1 μM, 72 hours
SRPK1 = SRPK1 (Homo sapiens (Human), UniProt Q96SB4); assay: SRPK1 inhibitory activity; type: biochemical
Sequence of SRPK1 (Q96SB4 whole entry): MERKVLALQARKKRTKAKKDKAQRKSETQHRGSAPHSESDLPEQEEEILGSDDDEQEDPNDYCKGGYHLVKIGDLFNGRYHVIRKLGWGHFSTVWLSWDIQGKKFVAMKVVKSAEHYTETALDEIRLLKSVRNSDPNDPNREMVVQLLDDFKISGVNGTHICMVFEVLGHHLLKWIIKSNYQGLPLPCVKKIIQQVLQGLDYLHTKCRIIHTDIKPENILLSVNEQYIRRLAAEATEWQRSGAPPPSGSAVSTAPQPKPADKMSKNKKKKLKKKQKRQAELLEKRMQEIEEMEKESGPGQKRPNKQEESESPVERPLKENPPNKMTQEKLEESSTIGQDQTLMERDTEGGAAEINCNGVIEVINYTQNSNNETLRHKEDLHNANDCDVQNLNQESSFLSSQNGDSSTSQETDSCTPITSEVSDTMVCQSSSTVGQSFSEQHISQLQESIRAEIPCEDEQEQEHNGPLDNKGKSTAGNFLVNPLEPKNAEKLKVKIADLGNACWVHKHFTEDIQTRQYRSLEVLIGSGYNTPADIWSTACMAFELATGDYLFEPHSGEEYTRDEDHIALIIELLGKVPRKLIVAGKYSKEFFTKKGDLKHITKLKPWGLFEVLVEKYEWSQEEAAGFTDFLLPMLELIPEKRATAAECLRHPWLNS

SRPK2 = SRPK2 (Homo sapiens (Human), UniProt P78362); assay: SRPK2 inhibitory activity; type: biochemical
Sequence of SRPK2 (P78362 whole entry, species assumed): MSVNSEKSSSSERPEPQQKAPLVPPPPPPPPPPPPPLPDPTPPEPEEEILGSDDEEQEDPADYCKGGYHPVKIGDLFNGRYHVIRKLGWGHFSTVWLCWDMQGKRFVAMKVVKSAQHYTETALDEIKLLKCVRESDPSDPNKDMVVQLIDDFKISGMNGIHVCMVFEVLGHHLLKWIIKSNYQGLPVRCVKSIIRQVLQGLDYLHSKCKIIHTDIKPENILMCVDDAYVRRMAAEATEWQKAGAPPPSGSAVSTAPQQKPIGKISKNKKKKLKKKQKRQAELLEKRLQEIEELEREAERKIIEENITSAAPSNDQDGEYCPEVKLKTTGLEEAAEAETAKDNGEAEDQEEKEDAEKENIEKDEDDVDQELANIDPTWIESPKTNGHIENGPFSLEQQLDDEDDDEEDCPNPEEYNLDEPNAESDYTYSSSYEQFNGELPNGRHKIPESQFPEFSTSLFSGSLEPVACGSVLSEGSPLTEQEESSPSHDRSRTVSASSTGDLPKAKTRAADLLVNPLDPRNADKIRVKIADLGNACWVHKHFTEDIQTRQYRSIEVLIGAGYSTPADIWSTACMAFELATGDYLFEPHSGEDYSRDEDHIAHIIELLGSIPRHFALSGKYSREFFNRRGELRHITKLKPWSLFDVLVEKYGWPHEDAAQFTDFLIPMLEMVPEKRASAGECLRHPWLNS

IC50 (SRPK1) [nM]	IC50 (SRPK2) [nM]	SMILES	Percent viability of untreated control, wt [1] [%]	Percent viability of untreated control, G1202R [2] [%]
		CCc1cc2c(cc1/C=C/CN1CCOCC1)C(C)(C)c1[nH]c3cc(C#N)ccc3c1C2=O [Compound 25, (E)-9-ethyl-6,6-dimethyl-8-(3-morpholinoprop-1-en-1-yl)-11-oxo-6,11-dihydro-5H-benzo[b]carbazole-3-carbonitrile]	93	103
		CCc1cc2c(cc1-c1ccoc1)C(C)(C)c1[nH]c3cc(C#N)ccc3c1C2=O [Compound 11, 9-ethyl-8-(furan-3-yl)-6,6-dimethyl-11-oxo-6,11-dihydro-5H-benzo[b]carbazole-3-carbonitrile]	6	8
		CCc1cc2c(cc1[C@@H](O)CO)C(C)(C)c1[nH]c3cc(C#N)ccc3c1C2=O [Compound 22, (R)-8-(1,2-dihydroxyethyl)-9-ethyl-6,6-dimethyl-11-oxo-6,11-dihydro-5H-benzo[b]carbazole-3-carbonitrile]	4	39
		CCc1cc2c(cc1-c1cn[nH]c1)C(C)(C)c1[nH]c3cc(C#N)ccc3c1C2=O [Compound 8, 9-ethyl-6,6-dimethyl-11-oxo-8-(1H-pyrazol-4-yl)-6,11-dihydro-5H-benzo[b]carbazole-3-carbonitrile]	0	1
		CCc1cc2c(cc1[C@H](O)CO)C(C)(C)c1[nH]c3cc(C#N)ccc3c1C2=O [Compound 23, (S)-8-(1,2-dihydroxyethyl)-9-ethyl-6,6-dimethyl-11-oxo-6,11-dihydro-5H-benzo[b]carbazole-3-carbonitrile]	4	
		CCc1cc2c(cc1C(=O)O)C(C)(C)c1[nH]c3cc(C#N)ccc3c1C2=O [Compound 24, 3-cyano-9-ethyl-6,6-dimethyl-11-oxo-6,11-dihydro-5H-benzo[b]carbazole-8-carboxylic acid]	57	39
		CCc1cc2c(cc1-c1cnn(C(C)(C)C(=O)N(C)C)c1)C(C)(C)c1[nH]c3cc(C#N)ccc3c1C2=O [Compound 35, 2-(4-(3-cyano-9-ethyl-6,6-dimethyl-11-oxo-6,11-dihydro-5H-benzo[b]carbazol-8-yl)-1H-pyrazol-1-yl)-N,N,2-trimethylpropanamide]	0	0
		CCc1cc2c(cc1N(C)CCN(C)C)C(C)(C)c1[nH]c3cc(C#N)ccc3c1C2=O [Compound 28, 8-((2 (dimethylamino)ethyl)(methyl)amino)-9-ethyl-6,6-dimethyl-11-oxo-6,11-dihydro-5H-benzo[b]carbazole-3-carbonitrile]	2	7
		CCc1cc2c(cc1-c1ccc(N)nc1)C(C)(C)c1[nH]c3cc(C#N)ccc3c1C2=O [Compound 27, 8-(6-aminopyridin-3-yl)-9-ethyl-6,6-dimethyl-11-oxo-6,11-dihydro-5H-benzo[b]carbazole-3-carbonitrile]	12	42
2.66	8.57	CCc1cc2c(cc1N1CCN(C)CC1)C(C)(C)c1[nH]c3cc(C#N)ccc3c1C2=O [Compound 19, 9-ethyl-6,6-dimethyl-8-(4-methylpiperazin-1-yl)-11-oxo-6,11-dihydro-5H-benzo[b]carbazole-3-carbonitrile]	0.1	0.1
3.01	12.4	CCc1cc2c(cc1-c1cnn(C)c1)C(C)(C)c1[nH]c3cc(C#N)ccc3c1C2=O [Compound 7, 9-ethyl-6,6-dimethyl-8-(1-methyl-1H-pyrazol-4-yl)-11-oxo-6,11-dihydro-5H-benzo[b]carbazole-3-carbonitrile]	1	1
		CCc1cc2c(cc1C#N)C(C)(C)c1[nH]c3cc(C#N)ccc3c1C2=O [Compound 21, 9-ethyl-6,6-dimethyl-11-oxo-6,11-dihydro-5H-benzo[b]carbazole-3,8-dicarbonitrile]	19	28
		CCc1cc2c(cc1N1CCOCC1)C(C)(C)c1[nH]c3cc(C#N)ccc3c1C2=O [Compound 20, 9-ethyl-6,6-dimethyl-8-morpholino-11-oxo-6,11-dihydro-5H-benzo[b]carbazole-3-carbonitrile]	2	4
		CCc1cc2c(cc1N1CCNCC1)C(C)(C)c1[nH]c3cc(C#N)ccc3c1C2=O [Compound 18, 9-ethyl-6,6-dimethyl-11-oxo-8-(piperazin-1-yl)-6,11-dihydro-5H-benzo[b]carbazole-3-carbonitrile]	1	7
1.15		CCc1cc2c(cc1-c1cc[nH]n1)C(C)(C)c1[nH]c3cc(C#N)ccc3c1C2=O [Compound 9, 9-ethyl-6,6-dimethyl-11-oxo-8-(1H-pyrazol-3-yl)-6,11-dihydro-5H-benzo[b]carbazole-3-carbonitrile]	1	1
		CCc1cc2c(cc1-c1ccc(O)nc1)C(C)(C)c1[nH]c3cc(C#N)ccc3c1C2=O [Compound 26, 9-ethyl-8-(6-hydroxypyridin-3-yl)-6,6-dimethyl-11-oxo-6,11-dihydro-5H-benzo[b]carbazole-3-carbonitrile]	4	12
2.61		CCc1cc2c(cc1-c1ccncc1)C(C)(C)c1[nH]c3cc(C#N)ccc3c1C2=O [Compound 14]	2	5
		CCc1cc2c(cc1-c1cccs1)C(C)(C)c1[nH]c3cc(C#N)ccc3c1C2=O [Compound 12, 9-ethyl-6,6-dimethyl-11-oxo-8-(thiophen-2-yl)-6,11-dihydro-5H-benzo[b]carbazole-3-carbonitrile]	12	10
		CCc1cc2c(cc1-c1cnn(CC(=O)NC)c1)C(C)(C)c1[nH]c3cc(C#N)ccc3c1C2=O [Compound 33, 2-(4-(3-cyano-9-ethyl-6,6-dimethyl-11-oxo-6,11-dihydro-5H-benzo[b]carbazol-8-yl)-1H-pyrazol-1-yl)-N-methylacetamide]	0	0
		CCc1cc2c(cc1-c1cccnc1)C(C)(C)c1[nH]c3cc(C#N)ccc3c1C2=O [Compound 15, 9-ethyl-6,6-dimethyl-11-oxo-8-(pyridin-3-yl)-6,11-dihydro-5H-benzo[b]carbazole-3-carbonitrile]	1	3

SMILES	IC50 (SRPK1) [nM]	IC50 (SRPK2) [nM]	Percent viability of untreated control, wt [1] [%]	Percent viability of untreated control, G1202R [2] [%]
CCc1cc2c(cc1-c1ccc(S(=O)(=O)F)cc1)C(C)(C)c1[nH]c3cc(C#N)ccc3c1C2=O [Compound 38, 4-(3-cyano-9-ethyl-6,6-dimethyl-11-oxo-6,11-dihydro-5H-benzo[b]carbazol-8-yl)benzenesulfonyl fluoride]	41			
